These results are taken from PMC11785640, “Structure-based inhibition of acetylcholinesterase and butyrylcholinesterase with 2-Aryl-6-carboxamide benzoxazole derivatives: synthesis, enzymatic assay, and in silico studies” (Molecular Diversity, 2024).

The test system of assay [1] is AChE. Particulars: cited from earlier work.
The target of assay [2] is AChE (Electrophorus electricus, UniProt O42275). The assay can be described thus: biochemical. It is filed as biochemical. Particulars: for Ki: from Lineweaver-Burk graphs, mean ± SD, triplicate; for Selectivity index (AChE/BChE): ratio AChE/BChE. The method, then: (§1) These analogs were dissolved in DMSO at an initial concentration of 1 mg/mL. Around 1% of DMSO was present in the final reaction mixture. Acetylthiocholine iodide (AChI)/butyrylcholine iodide (BChI) were used as substrates for enzymatic reactions. […] The mixture was incubated at 20 °C for 20 min. Then, 50 µL of 5,5’-dithio-bis 2-nitro-benzoic acid (DTNB, 0.5 mM) and AChI/BChI were added and enzymatic reactions were initiated.
AChE (Electrophorus electricus, UniProt O42275), sequence (O42275 24-633): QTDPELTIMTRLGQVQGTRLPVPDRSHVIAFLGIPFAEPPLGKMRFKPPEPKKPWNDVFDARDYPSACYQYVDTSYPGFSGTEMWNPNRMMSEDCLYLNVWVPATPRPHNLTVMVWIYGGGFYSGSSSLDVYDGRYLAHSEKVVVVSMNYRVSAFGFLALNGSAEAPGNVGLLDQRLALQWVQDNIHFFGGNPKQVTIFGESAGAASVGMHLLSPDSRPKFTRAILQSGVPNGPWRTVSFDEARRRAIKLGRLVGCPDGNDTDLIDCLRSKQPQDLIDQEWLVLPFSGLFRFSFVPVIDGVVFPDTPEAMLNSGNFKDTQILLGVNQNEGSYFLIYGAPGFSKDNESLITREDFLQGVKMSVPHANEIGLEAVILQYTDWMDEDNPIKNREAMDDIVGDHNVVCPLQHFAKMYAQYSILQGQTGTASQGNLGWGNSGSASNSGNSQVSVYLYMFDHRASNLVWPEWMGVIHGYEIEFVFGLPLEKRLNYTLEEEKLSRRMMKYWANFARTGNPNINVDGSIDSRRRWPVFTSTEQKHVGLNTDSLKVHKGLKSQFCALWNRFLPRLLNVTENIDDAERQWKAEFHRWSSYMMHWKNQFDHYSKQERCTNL
(§2) Lineweaver-Burk graphs were used for the calculation of Ki and the other parameters as described in prior studies. The Ki values were taken out from this graph. All analyses were conducted independently in triplicate, and result data are expressed as mean values ± SD [59].

Assay [3] addresses BChE (Equus caballus, UniProt P81908). The assay can be described thus: biochemical. It is filed as biochemical. Particulars: for Ki: from Lineweaver-Burk graphs, mean ± SD, triplicate. The method, then:
as §1, §2

BChE, sequence (P81908 whole entry): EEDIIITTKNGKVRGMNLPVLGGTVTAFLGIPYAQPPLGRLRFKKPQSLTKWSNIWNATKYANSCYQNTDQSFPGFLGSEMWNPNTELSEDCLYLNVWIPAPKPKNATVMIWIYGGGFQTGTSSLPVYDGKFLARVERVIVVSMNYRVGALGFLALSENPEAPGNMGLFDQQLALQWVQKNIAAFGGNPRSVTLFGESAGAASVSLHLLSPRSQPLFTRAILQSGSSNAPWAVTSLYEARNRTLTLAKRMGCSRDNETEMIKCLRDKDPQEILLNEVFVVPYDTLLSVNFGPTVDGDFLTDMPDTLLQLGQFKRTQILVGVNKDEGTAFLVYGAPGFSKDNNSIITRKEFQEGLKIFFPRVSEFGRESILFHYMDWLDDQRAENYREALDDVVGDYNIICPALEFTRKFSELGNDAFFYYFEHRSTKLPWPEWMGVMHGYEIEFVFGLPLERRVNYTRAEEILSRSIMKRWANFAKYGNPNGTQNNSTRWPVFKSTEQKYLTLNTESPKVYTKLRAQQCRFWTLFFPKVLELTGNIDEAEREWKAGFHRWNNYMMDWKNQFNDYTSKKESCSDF

For `Cc1ccc(CC(=O)Nc2ccc3nc(-c4ccccc4)oc3c2)cc1` [Compound 4], in assay [1], the IC50 (as a rule, the concentration at which inhibition is half-maximal) was 38.4 nM.

As for `CCN(CC)Cn1c(=S)oc2ccccc21` [Compound 6, 3-(diethylamino) methyl-2-thione benzoxazole], in assay [1], the half-inhibitory concentration (IC50) is 38 nM.

Consider `CN(C)C(=O)Oc1ccccc1-c1nc2ccccc2o1` [Compound 1], for which the “concentration at which it inhibits AChE” value in assay [1] is listed as 58.2 nM.

With `CN(C)C(=O)c1ccc2nc(-c3cccc4ccccc34)oc2c1` [Compound 19, N,Ndimethyl-2-(naphthalen-1-yl)benzo[d]oxazole-6-carboxamide], in assay [2], inhibition was half-maximal at 39.6 nM (IC50), the Ki (usually the equilibrium dissociation constant of an inhibitor or competing ligand from its target) came to 38.8 ± 2.96 nM and the “Selectivity index (AChE/BChE)” value is reported as 0.32. In assay [3], this compound displayed an IC50 of 142 nM and a Ki of 121 ± 15.5 nM.

With `CCCN(CCC)C(=O)c1ccc2nc(-c3ccncc3)oc2c1` [Compound 27, N,Ndipropyl-2-(pyridin-4-yl)benzo[d]oxazole-6-carboxamide], in assay [2], the IC50 amounted to 49.5 nM, the Ki worked out at 50 ± 5.13 nM and the “Selectivity index (AChE/BChE)” value is reported as 0.72. In assay [3], this compound displayed a concentration for half-maximal inhibition (IC50) of 87.1 nM and a Ki of 69.7 ± 4.1 nM.

For the compound `O=C(c1ccc2nc(-c3ccncc3)oc2c1)N1CCCCC1` [Compound 29, Piperidin-1-yl(2-(pyridin-4-yl)benzo[d]oxazol-6-yl)methanone], in assay [2], half-maximal inhibition (IC50) was put at 28 nM and the inhibitory constant (Ki) was found to be 27.4 ± 2.53 nM. In assay [3], this compound showed an IC50 of 54.1 nM and a Ki of 47.9 ± 8.42 nM.

Take `CCN(CC)C(=O)c1ccc2nc(-c3ccco3)oc2c1` [Compound 38, N,N-diethyl-2-(furan-2-yl)benzo[d]oxazole-6-carboxamide]: in assay [2], half-maximal inhibition (IC50) required 52.8 nM, affinity was put at a Ki of 41.2 ± 7.41 nM and the “Selectivity index (AChE/BChE)” value amounted to 0.69. Moreover, in assay [3], the half-maximal inhibitory concentration (IC50) was 70.4 nM and the Ki was determined as 59.4 ± 8.01 nM.

As to `S=c1oc2ccccc2n1CN1CCOCC1` [Compound 5, 3-morpholino methyl-2-thione benzoxazole], the IC50 in assay [1] is 44 nM.

With `O=C(c1ccc2nc(-c3cccc4ccccc34)oc2c1)N1CCCC1` [Compound 22], in assay [2], inhibition was half-maximal at 43 nM (IC50), the Ki is 41.9 ± 5.64 nM and the “Selectivity index (AChE/BChE)” value came out at 0.58. In addition, in assay [3], the IC50 turned out to be 124 nM and the Ki was 72.5 ± 5.66 nM.

For `CCCN(CCC)C(=O)c1ccc2nc(-c3ccc[nH]3)oc2c1` [Compound 33, N,N-dipropyl-2-(1 H-pyrrol-2-yl)benzo[d]oxazole-6-carboxamide], in assay [2], half-maximal inhibition (IC50) required 40.2 nM, the affinity corresponds to a Ki of 26.1 ± 3.35 nM and the “Selectivity index (AChE/BChE)” value is on record as 0.68. Besides, in assay [3], the IC50 was determined as 55.5 nM and affinity was put at a Ki of 38.5 ± 8.43 nM.

Regarding `CN(C)C(=O)c1ccc2nc(-c3ccncc3)oc2c1` [Compound 25, N,Ndimethyl-2-(pyridin-4-yl)benzo[d]oxazole-6-carboxamide], in assay [2], the midpoint of inhibition, the IC50, lay at 54.7 nM; the inhibition constant Ki was determined as 85.3 ± 11.2 nM; the “Selectivity index (AChE/BChE)” value was 1.28. In assay [3], this compound gave an IC50 of 93.6 nM and a Ki of 66.4 ± 13.6 nM.

In the case of `O=C(c1ccc2nc(-c3cccs3)oc2c1)N1CCOCC1` [Compound 48, Morpholino(2-(thiophen-2-yl)benzo[d]oxazol-6-yl)methanone], in assay [2], the 50% inhibitory concentration (IC50) worked out at 17.9 nM, the Ki stood at 10.6 ± 0.58 nM and the “Selectivity index (AChE/BChE)” value came to 0.47. In assay [3], the IC50 turned out to be 33 nM and the affinity corresponds to a Ki of 22.7 ± 3.07 nM.

Take `CN(C)C(=O)c1ccc2nc(-c3ccccc3)oc2c1` [Compound 7, N,N -dimethyl-2-phenylbenzo[d]oxazole-6-carboxamide]: in assay [2], the half-inhibitory concentration (IC50) is 32.9 nM, the affinity corresponds to a Ki of 23 ± 1.7 nM and the “Selectivity index (AChE/BChE)” value was determined as 0.45. In assay [3], this compound returned a concentration for half-maximal inhibition (IC50) of 65.8 nM and a Ki of 50.7 ± 6.43 nM.

As for `O=C(c1ccc2nc(-c3ccco3)oc2c1)N1CCCCC1` [Compound 41], in assay [2], the IC50 is 25.3 nM, the Ki was determined as 30.7 ± 6.03 nM and the “Selectivity index (AChE/BChE)” value was 0.41. In assay [3], this compound came in with an IC50 of 80.1 nM and a Ki of 75.5 ± 18.4 nM.

As for `CCN(CC)C(=O)c1ccc2nc(-c3ccc[nH]3)oc2c1` [Compound 32, N,N-diethyl-2-(1 H-pyrrol-2-yl)benzo[d]oxazole-6-carboxamide], in assay [2], the IC50 worked out at 41.7 nM, affinity was put at a Ki of 47.5 ± 9.8 nM and the “Selectivity index (AChE/BChE)” value was 2.07. In assay [3], this compound came in with an IC50 of 30.1 nM and a Ki of 23 ± 1.52 nM.

Turning to `CN(C)C(=O)c1ccc2nc(-c3cccs3)oc2c1` [Compound 43, N,Ndimethyl-2-(thiophen-2-yl)benzo[d]oxazole-6-carboxamide], in assay [2], the IC50 was 29.2 nM; the affinity, expressed as Ki, was 19.9 ± 0.73 nM; the “Selectivity index (AChE/BChE)” value turned out to be 0.17. Further, in assay [3], the IC50 came to 130 nM and the affinity corresponds to a Ki of 120 ± 25.7 nM.

Consider `O=C(c1ccc2nc(-c3ccccc3)oc2c1)N1CCOCC1` [Compound 12], for which, in assay [2], the IC50 came out at 29.6 nM, the Ki stood at 28.6 ± 3.96 nM and the “Selectivity index (AChE/BChE)” value is given as 0.88. In assay [3], this compound had an IC50 of 34.5 nM and an inhibitory constant (Ki) of 32.3 ± 3.25 nM.

With `O=C(c1ccc2nc(-c3ccncc3)oc2c1)N1CCOCC1` [Compound 30, Morpholino(2-(pyridin-4-yl)benzo[d]oxazol-6-yl)methanone], in assay [2], the IC50 is 24.3 nM, the Ki came to 18.3 ± 4.37 nM and the “Selectivity index (AChE/BChE)” value stood at 0.40. Besides, in assay [3], 49.7 nM corresponded to half-maximal inhibition (IC50) and the affinity, expressed as Ki, was 45.4 ± 3.04 nM.

As to `CCN(CC)C(=O)c1ccc2nc(-c3ccncc3)oc2c1` [Compound 26, N,Ndiethyl-2-(pyridin-4-yl)benzo[d]oxazole-6-carboxamide], in assay [2], the midpoint of inhibition, the IC50, lay at 48.1 nM; the affinity, expressed as Ki, was 83.1 ± 1.33 nM; the “Selectivity index (AChE/BChE)” value stood at 1.53. In assay [3], this compound registered an IC50 of 76.2 nM and a Ki of 54.4 ± 4.85 nM.

Turning to `CCN1CCN(CC(=O)Nc2ccc3nc(-c4ccc(C(C)(C)C)cc4)oc3c2)CC1` [Compound 3], the IC50 in assay [1] is 3.67 nM.

Regarding `CN(C)C(=O)c1ccc2nc(-c3ccc[nH]3)oc2c1` [Compound 31, N,N-dimethyl-2-(1 H-pyrrol-2-yl)benzo[d]oxazole-6-carboxamide], in assay [2], the IC50 is 36.8 nM, the Ki came out at 30.7 ± 2.21 nM and the “Selectivity index (AChE/BChE)” value is recorded as 0.73. In assay [3], this compound registered a half-inhibitory concentration (IC50) of 47.3 nM and a Ki of 42 ± 6.32 nM.

In the case of `CCCN(CCC)C(=O)c1ccc2nc(-c3cccs3)oc2c1` [Compound 45, N,Ndipropyl-2-(thiophen-2-yl)benzo[d]oxazole-6-carboxamide], in assay [2], half-maximal inhibition (IC50) was put at 30.1 nM, affinity was put at a Ki of 21.8 ± 1.45 nM and the “Selectivity index (AChE/BChE)” value was 0.30. In assay [3], half-maximal inhibition (IC50) was put at 85.2 nM and the affinity, expressed as Ki, was 72.5 ± 12.6 nM.

Regarding `O=C(c1ccc2nc(-c3ccc[nH]3)oc2c1)N1CCCC1` [Compound 34, (2-(1 H-pyrrol-2-yl)benzo[d]oxazol-6-yl)(pyrrolidin-1-yl)methanone], in assay [2], inhibition was half-maximal at 26.7 nM (IC50), the Ki stood at 15.5 ± 1.96 nM and the “Selectivity index (AChE/BChE)” value is 0.32. In assay [3], this compound came in with an IC50 of 53.2 nM and a Ki of 48.2 ± 2.56 nM.

For the compound `CCCN(CCC)C(=O)c1ccc2nc(-c3ccc(-c4ccccc4)cc3)oc2c1` [Compound 15, 2-([1,1’-Biphenyl]-4-yl)-N,N-dipropylbenzo[d]oxazole-6-carboxamide], in assay [2], inhibition was half-maximal at 40.7 nM (IC50), the inhibitory constant (Ki) turned out to be 38.2 ± 0.66 nM and the “Selectivity index (AChE/BChE)” value is 0.40. In assay [3], this compound had an IC50 of 113 nM and a Ki of 95.7 ± 7.32 nM.

With `CCCN(CCC)C(=O)c1ccc2nc(-c3ccco3)oc2c1` [Compound 39, 2-(Furan-2-yl)-N,N-dipropylbenzo[d]oxazole-6-carboxamide], in assay [2], it took 28 nM to reach half-maximal inhibition (IC50), the Ki came to 38.5 ± 8.48 nM and the “Selectivity index (AChE/BChE)” value is recorded as 0.59. In assay [3], this compound registered an IC50 of 82.2 nM and a Ki of 65.2 ± 8.33 nM.

`O=C(c1ccc2nc(-c3cccs3)oc2c1)N1CCCC1` [Compound 46, Pyrrolidin-1-yl(2-(thiophen-2-yl)benzo[d]oxazol-6-yl)methanone]: in assay [2], the IC50 was found to be 31.5 nM; the affinity, expressed as Ki, was 29.2 ± 0.64 nM; the “Selectivity index (AChE/BChE)” value was determined as 0.33. Further, in assay [3], the IC50 was determined as 84.3 nM and the affinity, expressed as Ki, was 87.5 ± 13.6 nM.
